Assay results from publication PMC8538513, “Inhibition of Matrix Metalloproteinases and Cancer Cell Detachment by Ru(II) Polypyridyl Complexes Containing 4,7-Diphenyl-1,10-phenanthroline Ligands—New Candidates for Antimetastatic Agents” (Pharmaceuticals, 2021).

Key:
MMP-9 [1] = assay: Western blot, expression of the active form of MMP-9; format: cell-based, human; settings: A549 cells, 24 h, 100 µM, normalized to β-actin
Method: A549 cells were seeded in a 25 cm^2 flask with the density of 1.25 × 10^6 cells per flask in complete medium and cultured for 24 h. […] After the incubation, cells were washed with ice-cold PBS and lysed using RIPA buffer containing Halt proteases inhibitor cocktail (Thermo Fisher Scientific). Protein samples (the same concentration per lane) were separated on a 12% sodium dodecyl sulfate polyacrylamide gel. PageRuler™ Prestained Protein Ladder (Thermo Fisher Scientific) was used to determine approximate molecular weights of resolved proteins. Electrophoresis was performed through the stacking gel for 25 min at 60 V and resolving gel for 50 min at 170 V at room temperature using a PowerPac™ Basic Power Supply (Bio-Rad, Inc., Hercules, CA, USA). […] Reactive protein was detected after membrane was washed three times in TBST using GE Healthcare Amersham™ ECL Prime Western Blotting Detection Reagent (GE Healthcare Inc., Chicago, IL, USA). Only one protein was detected at a time, each membrane was stripped in 0.2 M NaOH over 20 min, washed three times in water and blocked again before proceeding with another primary antibody. Data were collected by ChemiDoc XRS+ Imaging System (Bio-Rad, Inc., Hercules, CA, USA) and analyzed with Image Lab v. […]

B16F10 melanoma cells = system: B16F10 melanoma cells; set-up: method as in PMID 16368900; settings: 100 µM; cited from earlier work
MMP-2 = molecular target: T1, MMP-2 (Homo sapiens, UniProt P08253); assay: MMP-2 inhibition, fluorogenic substrate FS-6; format: biochemical; settings: [FS-6] = 2.5 µM, [enzyme] = 0.5 nM, 0.1 M Tris, pH 7.4, 37 °C; n.i. = no inhibition in the studied range (>> 25 µM, for NAMI-A >> 600 µM)
T1 construct: purchased Sigma-Aldrich
T1 sequence (P08253 110-660): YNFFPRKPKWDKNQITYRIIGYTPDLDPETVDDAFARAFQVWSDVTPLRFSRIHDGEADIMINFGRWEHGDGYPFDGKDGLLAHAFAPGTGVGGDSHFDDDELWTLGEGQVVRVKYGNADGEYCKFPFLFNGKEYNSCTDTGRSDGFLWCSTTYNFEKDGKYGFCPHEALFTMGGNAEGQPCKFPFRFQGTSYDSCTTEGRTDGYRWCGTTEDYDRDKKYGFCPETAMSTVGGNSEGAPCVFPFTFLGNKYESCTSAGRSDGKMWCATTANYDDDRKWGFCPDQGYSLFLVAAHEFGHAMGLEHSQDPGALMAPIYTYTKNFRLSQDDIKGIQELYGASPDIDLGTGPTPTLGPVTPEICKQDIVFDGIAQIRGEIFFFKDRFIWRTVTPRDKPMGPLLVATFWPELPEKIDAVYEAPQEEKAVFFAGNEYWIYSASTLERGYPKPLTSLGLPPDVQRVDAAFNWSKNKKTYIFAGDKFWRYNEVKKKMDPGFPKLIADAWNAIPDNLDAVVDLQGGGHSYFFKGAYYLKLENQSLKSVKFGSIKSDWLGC
Method: (§1) MMP-9 and MMP-2 were activated at 4 °C using 1 mM APMA overnight before the experiments. MMP-2 and MMP-9 assays were performed in 0.1 M Tris/HCl (pH 7.4, 37 °C) enriched with 0.1 M NaCl, 10 mM CaCl2, 0.1 mM ZnCl2 and 0.05% Brij35. […] Kinetic fluorescence measurements were performed using a Perkin Elmer LS55 spectrofluorimeter (λex/λem = 325/400 nm). The obtained fluorescence intensities were corrected due to inner filter effect according to the following equation [31]: […] where Fobs denotes the measured fluorescence intensity, while Aλem and Aλex are the absorbance of sample at emission and excitation wavelengths.
(§2) The enzyme activity in the presence of inhibitors was expressed as a fraction of initial reaction rate (vi/v0 ratio, v0—initial reaction rate, vi—initial reaction rate in the presence of inhibitor). IC50 parameters were calculated from a dose-response plot of enzyme fractional activity as a function of inhibitor concentration, using the Hill equation (OriginPro2018). Experiments were repeated three times and results are presented as mean values and standard deviation of the mean.

MMP-9 [2] = molecular target: T2, MMP-9 (Homo sapiens, UniProt P14780); assay: MMP-9 inhibition, fluorogenic substrate FS-6; format: biochemical; settings: [FS-6] = 2.5 µM, [enzyme] = 0.5 nM, 0.1 M Tris, pH 7.4, 37 °C, fluorescence assay; n.i. = no inhibition in the studied range (>> 25 µM, for NAMI-A >> 600 µM)
T2 construct: purchased Sigma-Aldrich
Method: as §1, §2

A549 cells [3] = assay: Trypsin resistance assay (cell adherence); format: cell-based, human
Method: Cells susceptibility to detachment upon incubation with the studied compounds was evaluated by checking their resistance to trypsin treatment. Cells were seeded into 96-well plate with the density of 3 × 10^4 cells per cm^2 in complete medium and cultured for 24 h. Then, cells were incubated with various concentrations of the studied compounds for 24 h. Subsequently, the cells were washed and 30 µL trypsin solution (0.05%) was added to each well for 10 min incubation at 37 °C. Next, cells were washed with PBS and Alamar Blue assay was performed to quantify adherent cells. The received results were normalized with appropriate wells without the trypsin treatment to exclude the possible toxicity of the studied compounds and presented as a percentage of control (untreated) cells. Experiments were performed in triplicates and each experiment was repeated five times to obtain mean values and standard error of the mean.

A549 cells [4] = assay: Cellular uptake of ruthenium (ICP-MS); format: cell-based, human; settings: 1 µM complex, 24 h
Method: For cellular uptake A549 cells were seeded in a 6-well plate with the density of 4 × 10^4 cells per cm^2 in complete medium and cultured for 24 h. […] Any dead cells were eliminated by washing cells’ monolayer with PBS. Subsequently, the incubated cells were washed, detached by trypsin treatment and counted. The cells were isolated by centrifugation and digested in concentrated nitric acid overnight at room temperature. The solutions were diluted with Millipore water to a final nitric acid concentration of 2%. The Ru content in the samples was measured by inductively coupled plasma mass spectrometry (ICP-MS) using NexION 2000C (Perkin Elmer). Experiments were repeated three times. Results were calculated as ruthenium concentration per cell and presented as mean values and standard deviation of mean. Similarly, the content of Ru ions was measured in subcellular fraction obtained as described in chapter 4.5.

A549 cells [5] = assay: Cytotoxicity, MTT assay; format: cell-based, human
Method: In vitro studies were conducted using human lung adenocarcinoma A549 cell line. Cells were routinely cultured in Dulbecco’s Modified Eagle Medium (DMEM, Corning, Corning, NY, USA) supplemented with 10% fetal bovine serum (FBS, Eurx, Gdańsk, Poland) (v/v) and 1% penicillin-streptomycin (100 units/mL–100µg/mL, Corning) (v/v) and incubated at 37 °C in humidified atmosphere with 5% CO2 (v/v). The cytotoxicity of the Ru(II) complexes was evaluated using MTT assay (Sigma-Aldrich). Cells were seeded into 96-well plate with the density of 3 × 10^4 cells per cm^2 in complete medium and cultured for 24 h. Then medium was removed and various concentrations of the studied compounds in basic medium were added. The final DMSO concentration in cell culture was fixed at 0.1% (v/v). […] After the incubation, MTT was removed, and the formed violet formazan crystals were dissolved in the 100 µL of DMSO:methanol (1:1) mixture. […] Experiments were performed in triplicates and repeated three times.

A549 cells [6] = settings: cited from earlier work

T2 sequence (P14780 107-707 limits assumed): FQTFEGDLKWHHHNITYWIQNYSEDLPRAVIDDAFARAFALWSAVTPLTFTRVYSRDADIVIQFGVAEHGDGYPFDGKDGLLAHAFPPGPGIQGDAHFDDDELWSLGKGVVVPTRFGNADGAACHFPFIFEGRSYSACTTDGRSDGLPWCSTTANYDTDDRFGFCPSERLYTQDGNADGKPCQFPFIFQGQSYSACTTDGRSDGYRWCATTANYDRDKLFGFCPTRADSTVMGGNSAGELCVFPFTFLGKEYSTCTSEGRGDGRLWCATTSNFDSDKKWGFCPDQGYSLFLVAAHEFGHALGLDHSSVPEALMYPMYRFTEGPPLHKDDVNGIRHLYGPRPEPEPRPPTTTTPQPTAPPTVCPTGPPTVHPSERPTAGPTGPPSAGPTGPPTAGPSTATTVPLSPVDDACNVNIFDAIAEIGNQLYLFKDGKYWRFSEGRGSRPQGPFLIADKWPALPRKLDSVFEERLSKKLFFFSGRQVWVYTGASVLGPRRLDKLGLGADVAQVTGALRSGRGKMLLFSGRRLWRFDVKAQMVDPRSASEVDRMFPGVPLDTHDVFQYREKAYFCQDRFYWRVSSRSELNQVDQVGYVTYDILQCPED

Q: Which results are given for `CS(C)=O.[Cl-].[Cl-].[Cl-].[Cl-].[Ru+3].c1c[nH+]c[nH]1.c1c[nH]cn1` [NAMI-A, trans-[tetrachlorido(1H-imidazole)(S-dimethylsulphoxide)ruthenate(III)]]?
A: Reduction of expression of active MMP-9 (MMP-9 [1]): 43%; Adhesion strength vs. control (B16F10 melanoma cells): up to 162 % vs. control; IC50 for MMP-2 (MMP-2): no inhibitory properties and n.i.; IC50 for MMP-9 (MMP-9 [2]): no inhibitory properties and n.i.; Cell adherence (adhesion strength) compared to control (A549 cells [3]; NAMI-A 100 µM): ca. 250%

Q: Which IC50 (MMP-2) does the source give for `[Ru+2].c1ccc(-c2ccnc3c2ccc2c(-c4ccccc4)ccnc23)cc1.c1ccc(-c2ccnc3c2ccc2c(-c4ccccc4)ccnc23)cc1.c1ccc(-c2ccnc3c2ccc2c(-c4ccccc4)ccnc23)cc1` [[Ru(dip)3]^2+] here?
A: 8.3 ± 1.1 µM

Q: What about the “Increase of ruthenium concentration in a cell (uptake)” value (A549 cells [4]) of the same molecule?
A: highest uptake by cells

Q: What about the IC50 (MMP-9 [2]) of the same molecule?
A: 4.1 ± 1.6 µM

Q: And the “Cytotoxicity (IC50)” value (A549 cells [5]; 24 h incubation, MTT)?
A: most cytotoxic compound

Q: What about the “Effect on cell adhesion / cell detachment (in words)” value (A549 cells [3]; 24 h, non-toxic concentrations, effect seen from 1 µM) of the same molecule?
A: high activity in inhibiting of cell detachment

Q: Which IC50 (A549 cells [6]) does the source give for `N.N.[Cl][Pt][Cl]` [cisplatin] here?
A: 70 µM

Q: For `[Ru+2].c1ccc(-c2ccccn2)nc1.c1ccc(-c2ccnc3c2ccc2c(-c4ccccc4)ccnc23)cc1.c1ccc(-c2ccnc3c2ccc2c(-c4ccccc4)ccnc23)cc1` [[Ru(dip)2(bpy)]^2+], which IC50 (MMP-2) is on record?
A: 22.5 ± 2 µM

Q: What about the IC50 (MMP-9 [2]) of the same molecule?
A: 6.2 ± 2.8 µM

Q: Which “Toxicity at the concentration used” value (A549 cells [5]; 1–8 µM) does the source give for `CNC(=O)[C@H](Cc1c[nH]c2ccccc12)NC(=O)[C@@H](CC(=O)NO)CC(C)C` [GM6001] here?
A: non-toxic concentration

Q: What about the “Effect on cell adhesion properties (in words)” value (A549 cells [3]; GM6001 1–8 µM) of the same molecule?
A: no alteration in cell adhesion properties was observed
